Assay results taken from patent US10428083B2, “Heterocyclylmethyl-thienouracile as antagonists of the adenosine-A2B-receptor” (BAYER PHARMA AKTIENGESELLSCHAFT, priority 2015, dated 2019).

Target: human adenosine A2b receptor (Homo sapiens (Human), UniProt P29275)
Test: Cellular in vitro reporter gene test for A2b receptor activity (CHO-K1, CRE-luciferase, NECA stimulation)
Format: cell-based
Details: recombinant CHO-K1 cell line, CRE-luciferase reporter, antagonism of EC50 concentration of NECA; in some cases means of several determinations, rounded to two significant figures; read-out: A2b receptor IC50
In short: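 CHO-K1 cells with CRE-driven luciferase; antagonists co-incubated with NECA at its EC50, determined in a pre-experiment on each test day. Luciferase read by luminescence 3 h after NECA addition.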

Chain of human adenosine A2b receptor (P29275 whole entry): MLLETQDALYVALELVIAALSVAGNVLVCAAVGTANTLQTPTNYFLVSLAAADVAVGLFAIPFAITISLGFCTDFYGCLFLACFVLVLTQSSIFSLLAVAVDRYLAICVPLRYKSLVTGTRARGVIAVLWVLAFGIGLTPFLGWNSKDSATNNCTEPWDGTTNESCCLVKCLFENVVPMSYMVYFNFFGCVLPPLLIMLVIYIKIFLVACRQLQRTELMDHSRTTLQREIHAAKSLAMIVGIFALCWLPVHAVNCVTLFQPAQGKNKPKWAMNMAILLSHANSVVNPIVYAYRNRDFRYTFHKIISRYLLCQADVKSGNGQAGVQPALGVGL

In order of falling IC50:
1. Cc1c(CN2CCN(C)C2=S)sc2c1c(=O)n(CC(F)(F)F)c(=O)n2CCCF [Example 173, 1-(3-Fluoropropyl)-5-methyl-6-[(3-methyl-2-thioxoimidazolidin-1-yl)methyl]-3-(2,2,2-trifluoroethyl)thieno[2,3-d]pyrimidine-2,4(1H,3H)-dione]  73 nM
2. COCCn1c(=O)n(CC=C(C)C)c(=O)c2c(C)c(CN3CCNC3=O)sc21 [Example 203, 1-(2-Methoxyethyl)-5-methyl-3-(3-methylbut-2-en-1-yl)-6-[(2-oxoimidazolidin-1-yl)methyl]thieno[2,3-d]pyrimidine-2,4(1H,3H)-dione]  57 nM
3. CCn1c(=O)c2c(C)c(CN3CCN(C(C)C)C3=S)sc2n(CCOC)c1=O [Example 174, 3-Ethyl-6-[(3-isopropyl-2-thioxoimidazolidin-1-yl)methyl]-1-(2-methoxyethyl)-5-methylthieno[2,3-d]pyrimidine-2,4(1H,3H)-dione]  49 nM
4. CCOCCn1c(=O)n(CCOC)c(=O)c2c(C)c(CN3CCNC3=S)sc21 [Example 169, 1-(2-Ethoxyethyl)-3-(2-methoxyethyl)-5-methyl-6-[(2-thioxoimidazolidin-1-yl)methyl]thieno[2,3-d]pyrimidine-2,4(1H,3H)-dione]  36 nM
5. CCOCCn1c(=O)n(CC(C)C)c(=O)c2c(C)c(CN3CCNC3=O)sc21 [Example 193, 1-(2-Ethoxyethyl)-3-isobutyl-5-methyl-6-[(2-oxoimidazolidin-1-yl)methyl]thieno[2,3-d]pyrimidine-2,4(1H,3H)-dione]  25 nM
6. CCOCCn1c(=O)n(CC(F)(F)F)c(=O)c2c(C)c(CN3CCNC3=O)sc21 [Example 205, 1-(2-Ethoxyethyl)-5-methyl-6-[(2-oxoimidazolidin-1-yl)methyl]-3-(2,2,2-trifluoroethyl)thieno[2,3-d]pyrimidine-2,4(1H,3H)-dione]  25 nM
7. CCn1c(=O)c2c(C)c(CN3CCNC3=O)sc2n(CCOC2CC2)c1=O [Example 178, 1-[2-(Cyclopropyloxy)ethyl]-3-ethyl-5-methyl-6-[(2-oxoimidazolidin-1-yl)methyl]thieno[2,3-d]pyrimidine-2,4(1H,3H)-dione]  21 nM
8. Cc1c(CN2CCNC2=O)sc2c1c(=O)n(C(C)C)c(=O)n2CC1COC1 [Example 189, 3-Isopropyl-5-methyl-1-(oxetan-3-ylmethyl)-6-[(2-oxoimidazolidin-1-yl)methyl]thieno[2,3-d]pyrimidine-2,4(1H,3H)-dione]  17 nM
9. Cc1c(CN2CCNC2=O)sc2c1c(=O)n(CC(F)(F)F)c(=O)n2CC1COC1 [Example 212, 5-Methyl-1-(oxetan-3-ylmethyl)-6-[(2-oxoimidazolidin-1-yl)methyl]-3-(2,2,2-trifluoroethyl)thieno[2,3-d]pyrimidine-2,4(1H,3H)-dione]  17 nM
10. COCCn1c(=O)c2c(C)c(CN3CCNC3=S)sc2n(CCOC)c1=O [Example 168, 1,3-Bis(2-methoxyethyl)-5-methyl-6-[(2-thioxoimidazolidin-1-yl)methyl]thieno[2,3-d]pyrimidine-2,4(1H,3H)-dione]  15 nM
11. CCn1c(=O)c2c(C)c(CN3CCNC3=O)sc2n(CC(F)F)c1=O [Example 177, 1-(2,2-Difluoroethyl)-3-ethyl-5-methyl-6-[(2-oxoimidazolidin-1-yl)methyl]thieno[2,3-d]pyrimidine-2,4(1H,3H)-dione]  15 nM
12. Cc1c(CN2CCNC2=S)sc2c1c(=O)n(CC(F)(F)F)c(=O)n2C [Example 159, 1,5-Dimethyl-6-[(2-thioxoimidazolidin-1-yl)methyl]-3-(2,22-trifluoroethyl)thieno[2,3-d]pyrimidine-2,4(1H,3H)-dione]  14 nM
13. Cc1c(CN2CCNC2=S)sc2c1c(=O)n(CC(F)F)c(=O)n2C [Example 166, 3-(2,2-Difluoroethyl)-1,5-dimethyl-6-[(2-thioxoimidazolidin-1-yl)methyl]thieno[2,3-d]pyrimidine-2,4(1H,3H)-dione]  13 nM
14. COC(C)(C)Cn1c(=O)c2c(C)c(CN3CCNC3=S)sc2n(CCCF)c1=O [Example 171, 1-(3-Fluoropropyl)-3-(2-methoxy-2-methylpropyl)-5-methyl-6-[(2-thioxoimidazolidin-1-yl)methyl]thieno[2,3-d]pyrimidine-2,4(1H,3H)-dione]  13 nM
15. Cc1c(CN2CCNC2=O)sc2c1c(=O)n(C(C)C)c(=O)n2CCF [Example 182, 1-(2-Fluoroethyl)-3-isopropyl-5-methyl-6-[(2-oxoimidazolidin-1-yl)methyl]thieno[2,3-d]pyrimidine-2,4(1H,3H)-dione]  9 nM
16. CCOCCn1c(=O)n(CC(F)F)c(=O)c2c(C)c(CN3CCNC3=S)sc21 [Example 161, 3-(2,2-Difluoroethyl)-1-(2-ethoxyethyl)-5-methyl-6-[(2-thioxoimidazolidin-1-yl)methyl]thieno[2,3-d]pyrimidine-2,4(1H,3H)-dione]  8.5 nM
17. Cc1c(CN2CCNC2=O)sc2c1c(=O)n(CC(C)C)c(=O)n2CC1COC1 [Example 199, 3-Isobutyl-5-methyl-1-(oxetan-3-ylmethyl)-6-[(2-oxoimidazolidin-1-yl)methyl]thieno[2,3-d]pyrimidine-2,4(1H,3H)-dione]  8.1 nM
18. COCCn1c(=O)n(CC(C)(C)C)c(=O)c2c(C)c(CN3CCNC3=O)sc21 [Example 202, 3-(2,2-Dimethylpropyl)-1-(2-methoxyethyl)-5-methyl-6-[(2-oxoimidazolidin-1-yl)methyl]thieno[2,3-d]pyrimidine-2,4(1H,3H)-dione]  7.8 nM
19. Cc1c(CN2CCNC2=O)sc2c1c(=O)n(CC(F)(F)F)c(=O)n2C [Example 213, 1,5-Dimethyl-6-[(2-oxoimidazolidin-1-yl)methyl]-3-(2,2,2-trifluoroethyl)thieno[2,3-d]pyrimidine-2,4(1H,3H)-dione]  7.6 nM
20. COCCn1c(=O)n(CC(C)(C)OC)c(=O)c2c(C)c(CN3CCNC3=S)sc21 [Example 172, 1-(2-Methoxyethyl)-3-(2-methoxy-2-methylpropyl)-5-methyl-6-[(2-thioxoimidazolidin-1-yl)methyl]thieno[2,3-d]pyrimidine-2,4(1H,3H)-dione]  7.3 nM
21. Cc1c(CN2CCNC2=S)sc2c1c(=O)n(CC(F)F)c(=O)n2CC1COC1 [Example 165, 3-(2,2-Difluoroethyl)-5-methyl-1-(oxetan-3-ylmethyl)-6-[(2-thioxoimidazolidin-1-yl)methyl]thieno[2,3-d]pyrimidine-2,4(1H,3H)-dione]  6.5 nM
22. COC(C)(C)Cn1c(=O)c2c(C)c(CN3CCNC3=S)sc2n(CCC(F)(F)F)c1=O [Example 170, 3-(2-Methoxy-2-methylpropyl)-5-methyl-6-[(2-thioxoimidazolidin-1-yl)methyl]-1-(3,3,3-trifluoropropyl)thieno[2,3-d]pyrimidine-2,4(1H,3H)-dione]  4.4 nM
23. Cc1c(CN2CCNC2=O)sc2c1c(=O)n(CC(C)(C)C)c(=O)n2CCCF [Example 201, 3-(2,2-Dimethylpropyl)-1-(3-fluoropropyl)-5-methyl-6-[(2-oxoimidazolidin-1-yl)methyl]thieno[2,3-d]pyrimidine-2,4(1H,3H)-dione]  4.4 nM
24. Cc1c(CN2CCNC2=O)sc2c1c(=O)n(CC(C)C)c(=O)n2CC(F)F [Example 191, 1-(2,2-Difluoroethyl)-3-isobutyl-5-methyl-6-[(2-oxoimidazolidin-1-yl)methyl]thieno[2,3-d]pyrimidine-2,4(1H,3H)-dione]  3.3 nM
25. Cc1c(CN2CCNC2=O)sc2c1c(=O)n(CC(C)C)c(=O)n2CCCF [Example 192, 1-(3-Fluoropropyl)-3-isobutyl-5-methyl-6-[(2-oxoimidazolidin-1-yl)methyl]thieno[2,3-d]pyrimidine-2,4(1H,3H)-dione]  3.2 nM
26. Cc1c(CN2CCNC2=O)sc2c1c(=O)n(CC(F)F)c(=O)n2CCC(F)(F)F [Example 214, 3-(2,2-Difluoroethyl)-5-methyl-6-[(2-oxoimidazolidin-1-yl)methyl]-1-(3,3,3-trifluoropropyl)thieno[2,3-d]pyrimidine-2,4(1H,3H)-dione]  3.1 nM
27. Cc1c(CN2CCNC2=S)sc2c1c(=O)n(CC(F)F)c(=O)n2CCC(F)(F)F [Example 160, 3-(2,2-Difluoroethyl)-5-methyl-6-[(2-thioxoimidazolidin-1-yl)methyl]-1-(3,3,3-trifluoropropyl)thieno[2,3-d]pyrimidine-2,4(1H,3H)-dione]  2.9 nM
28. Cc1c(CN2CCNC2=O)sc2c1c(=O)n(CC(C)(C)C)c(=O)n2CCC(F)(F)F [Example 200, 3-(2,2-Dimethylpropyl)-5-methyl-6-[(2-oxoimidazolidin-1-yl)methyl]-1-(3,3,3-trifluoropropyl)thieno[2,3-d]pyrimidine-2,4(1H,3H)-dione]  2.9 nM
29. COCCn1c(=O)n(CCc2ccccc2)c(=O)c2c(C)c(CN3CCNC3=O)sc21 [Example 176, 1-(2-Methoxyethyl)-5-methyl-6-[(2-oxoimidazolidin-1-yl)methyl]-3-(2-phenylethyl)thieno[2,3-d]pyrimidine-2,4(1H,3H)-dione]  1.5 nM
30. Cc1c(CN2CCNC2=O)sc2c1c(=O)n(C(C)C)c(=O)n2CCC(F)(F)F [Example 181, 3-Isopropyl-5-methyl-6-[(2-oxoimidazolidin-1-yl)methyl]-1-(3,3,3-trifluoropropyl)thieno[2,3-d]pyrimidine-2,4(1H,3H)-dione]  1.5 nM
31. COCCn1c(=O)c2c(C)c(CN3CCNC3=S)sc2n(CCC(F)(F)F)c1=O [Example 167, 3-(2-Methoxyethyl)-5-methyl-6-[(2-thioxoimidazolidin-1-yl)methyl]-1-(3,3,3-trifluoropropyl)thieno[2,3-d]pyrimidine-2,4(1H,3H)-dione]  1.2 nM
32. Cc1c(CN2CCNC2=O)sc2c1c(=O)n(CC(F)(F)F)c(=O)n2CCC(F)(F)F [Example 204, 5-Methyl-6-[(2-oxoimidazolidin-1-yl)methyl]-3-(2,2,2-trifluoroethyl)-1-(3,3,3-trifluoropropyl)thieno[2,3-d]pyrimidine-2,4(1H,3H)-dione]  1.1 nM
